Our source for the LC retention time values is the RepoRT retention time repository.

Molecules are shown by their SMILES.

The data set is described as follows: Agilent ZORBAX 300 SB-C18, 150 × 1 mm, 3.5 µm; A: water + 0.01% heptafluorobutyric acid; B: acetonitrile + 0.01% heptafluorobutyric acid; gradient (min/%B) 0/0 100/90. To be noted: stereoisomer not certain.
`CCN(CC)c1ccc(C2Nc3ccccc3C(CC)(CC)O2)cc1` (stereo not given): the LC retention time amounted to 13.8 min. In the case of `Cc1cc(C(=O)O)c2ccccc2n1`, the LC retention time stood at 5.51 min. For the compound `Nc1ccc(C=C(C(=O)O)c2ccccc2)cc1`, the LC retention time was determined as 9.96 min. `Cc1cc2c(s1)Nc1ccccc1N=C2N`: the LC retention time is 9.24 min. In the case of `CN(C)CC(C)(C)CO` it was 6.43 min; in that of `O=C(O)CNC(CO)(CO)CO`, 1.66 min. In the case of `CC(=NCCN1CCNCC1)C1=C(O)CC(C)(C)CC1=O` it was 8.02 min; in that of `Nc1cccnc1N`, 6.18 min; in that of `CN(c1ccccc1)c1ccc(C=C2CCc3ccccc3C2=O)cc1`, 20.3 min. For `OCCCCNCc1ccccc1`, the LC retention time amounted to 7.61 min. For `Nc1ccncc1`, the LC retention time is 5.68 min. In the case of `O=c1c2ccccc2nc(-c2ccccc2)n1-c1ccccc1` it was 13.8 min; in that of `Cc1ccc(C(=O)c2cccc(N)c2)cc1C`, 13 min; in that of `CCc1ccc(C2CC(=O)N(N(C)C)C3=C2C(=O)CCC3)cc1` (stereo not given), 15.1 min. In the case of `OC1CCCc2c1[nH]c1ccccc21` (stereo not given) it was 11.4 min. Turning to `Cc1cc(C(=O)N2CCCCC2)c2c(=O)n(CC(=O)N3CCc4ccccc43)c(=O)n(C)c2n1`, the LC retention time was found to be 13.5 min.

Turning to `CN1CCc2cccc3c2C1Cc1ccc(O)c(O)c1-3` (stereo not given), the LC retention time worked out at 8.8 min. In the case of `COc1cc(C)c(NC(C)=O)c(C)c1` it was 8.85 min.

For the compound `CC12CCC(=O)C=C1CCC1C2CCC2(C)C1CCC2(C)O` (stereo not given), the LC retention time stood at 14.5 min. Take `O=C(O)c1ccc(=O)[nH]c1`: the LC retention time worked out at 4.42 min. In the case of `CCCCN1CCCC1` it was 7.55 min. In the case of `COC(=O)CCc1c(COC(C)=O)[nH]c(C(=O)OCc2ccccc2)c1C` it was 15.1 min; in that of `CCn1cc(-c2ccn[nH]2)c(C)n1`, 8.21 min; in that of `CCCNC(C)C(=O)Nc1c(C)csc1C(=O)OC` (stereo not given), 9.27 min. In the case of `CCOc1ccc(CCNC(=O)N(c2ccccc2)c2ccccc2)cc1OCC` it was 16 min; in that of `C1CN(CCN2CCOCC2)CCO1`, 6.81 min. With `CCOC(=O)C(N)Cc1ccccc1` (stereo not given), the LC retention time stood at 9.03 min. In the case of `NCCCNCCNCCCN` it was 7.73 min. In the case of `NC1CCCCCC1` it was 7.85 min. In the case of `Cc1ccc(NC(=S)NC2CC(C)(C)NC(C)(C)C2)cc1` it was 9.5 min; in that of `CC(=O)NC(C)c1ccc(O)cc1` (stereo not given), 7.19 min; in that of `CNC(=S)Nc1c(C)cccc1C`, 9.89 min. On to `CC(C)(C)C(=O)NNc1ccccc1`, for which the LC retention time was 10.5 min. In the case of `Cc1ccccc1-n1c(O)c(C=C2C=Nc3ccccc32)c(=O)n(-c2ccccc2C)c1=O` it was 15.9 min; in that of `CCOc1ccc(C(c2c[nH]c3ccccc23)c2c[nH]c3ccccc23)cc1`, 17.2 min; in that of `CCCOC(=O)C1CCCCN1` (stereo not given), 7.95 min. In the case of `CCN(CC)CC(=O)Nc1c(C)cccc1C` it was 9.19 min; in that of `Nc1nc(N)nc(Cc2ccccc2)n1`, 7.96 min.

Regarding `COC(=O)c1[nH]c2ccccc2c1C(=O)OC`, the LC retention time worked out at 11.3 min. With `c1ccc2c(NC3=NCCS3)cccc2c1`, the LC retention time was found to be 9.27 min. In the case of `CNCc1ccccc1` it was 7.43 min. In the case of `Cc1ccc(C)c(NC(=O)C(=O)NCC(C)O)c1` (stereo not given) it was 10.5 min; in that of `CCCC(CCC)C(=O)NC1CCN(Cc2ccccc2)CC1`, 10.2 min; in that of `Nc1ccccc1NC(=O)Nc1ccccc1N`, 8.05 min. In the case of `c1nc2cc3ncc[nH]c3cc2n1` it was 7.13 min.

`O=C1CCCN1CCc1ccccn1`: the LC retention time is 6.77 min. In the case of `CC1(C)CC(O)N=C1c1ccccc1` (stereo not given) it was 8.25 min. In the case of `c1ccc(-c2cc(-c3ccccc3)n(-c3ccccc3)n2)cc1` it was 19 min; in that of `CN(C)C=CC(=O)c1ccc2ccccc2c1`, 12.2 min; in that of `CCN(CC)CCC(O)(c1ccccc1)C1CCCCC1` (stereo not given), 11.3 min.

For `O=C1NCCN1C(=O)c1ccco1`, the LC retention time amounted to 6.67 min.

Turning to `CN(C)CCCOc1nn(Cc2ccccc2)c2ccccc12`, the LC retention time was found to be 11.2 min. With `Nc1ccccn1`, the LC retention time worked out at 6.12 min. As for `NC(=O)c1cn(CC(=O)O)c(=O)[nH]c1=O`, the LC retention time came to 1.6 min. In the case of `CC1(C)CC(N)CC(C)(CN)C1` (stereo not given) it was 7.39 min; in that of `CC(CCc1ccccc1)NCC(O)c1ccc(O)c(C(N)=O)c1` (stereo not given), 10 min; in that of `Cc1ccc(NC(=O)COc2ccc(-c3ccccc3)cc2)cc1`, 17.1 min.

Consider `NNC(=O)C(O)C(O)C(=O)NN` (stereo not given), for which the LC retention time was 1.94 min. In the case of `Nc1nc(N)nc(N)n1` it was 4.25 min; in that of `c1ccc(CNCc2ccccc2)cc1`, 9.71 min; in that of `Cn1cccc1C=NNC(=O)CCCC(=O)NN=Cc1cccn1C`, 10.2 min. In the case of `O=C(c1ccc(-c2ccccc2)cc1)N1CCN(c2ccccc2)CC1` it was 16.5 min. In the case of `Nc1ccc2[nH]c3c(c2c1)CCCC3` it was 8.89 min; in that of `Nc1ncc2c(n1)CCC2`, 6.96 min; in that of `CCn1c2ccccc2c2ccccc21`, 17.5 min. For `O=C(O)c1cncc(C(=O)O)c1`, the LC retention time was 3.03 min. In the case of `CCn1c(C)c(C(C)=O)c(C(C)=O)c1C` it was 9.56 min. For `NCC(=O)c1ccccc1`, the LC retention time was found to be 7.35 min. In the case of `C(=Cc1ccco1)C=NN1CCN(Cc2cccc3ccccc23)CC1` it was 11.2 min. In the case of `CNCc1n[nH]c(=O)[nH]1` it was 2.58 min. Consider `CCN(CC)c1ccc(C(=O)NCC(C)C)cc1`, for which the LC retention time is 11.7 min. With `CCC1(CC)C(=O)NCC(C)C1=O` (stereo not given), the LC retention time worked out at 9.1 min. In the case of `O=C1CC(Nc2ccc3ccccc3c2)C(=O)N1c1cccc2ccccc12` (stereo not given) it was 15.7 min; in that of `Nc1ccc(N2CCOCC2)c(N)c1`, 7.33 min; in that of `Cc1cc(C)n(CCO)c(=O)n1`, 5.92 min. As for `CCN(CC)CC(=O)Nc1c(C)ccc(O)c1C`, the LC retention time came out at 8.16 min. In the case of `CC(C)(CO)Nc1c[nH]c(=O)[nH]c1=O` it was 6.01 min; in that of `CNCCc1ccccn1`, 6.92 min; in that of `c1ccc(-c2ccnc(-c3cc(-c4ccccc4)ccn3)c2)cc1`, 14.9 min. In the case of `CCNCCN(CC)CC` it was 6.96 min; in that of `C[N+](C)(C)c1cnc(=O)[nH]c1`, 2.5 min; in that of `C=CCNc1ccccc1`, 9.55 min. In the case of `O=Cc1cccc2ncccc12` it was 8.73 min; in that of `NC(=O)c1ccccc1NC(=O)CN1CCCC1`, 7.36 min; in that of `Nc1ccc2ncn(Cc3ccccc3)c(=O)c2c1`, 9.74 min. Take `CCCCCCNC(=O)c1ccc(OC(C)=O)cc1`: the LC retention time worked out at 13.8 min. In the case of `Nc1cccc2oc3ccccc3c12` it was 11.6 min. Consider `Nc1c(S(=O)(=O)O)ccc2c1C(=O)c1ccccc1C2=O`, for which the LC retention time is 8.56 min. In the case of `N=c1c2c3c(sc2ncn1N)CCC3` it was 8.21 min; in that of `COc1ccc2c(c1)C(C)N1C(=O)c3cc(OC)c(OC)cc3C1O2` (stereo not given), 13.1 min; in that of `Nc1ccc2oc3c(c2c1)CCCC3`, 9.57 min.

On to `Cn1cccc1CC(=O)NN=CC=Cc1ccccc1`, for which the LC retention time was found to be 12.7 min. On to `CN(C)C(=O)c1ccc(N)cc1`, for which the LC retention time came out at 6.87 min.

On to `COC1=CC(=O)C(=O)C=C1OC`, for which the LC retention time was found to be 7.13 min.

Turning to `CCOC(=O)C=CC(=O)NCCC1=CCCCC1`, the LC retention time amounted to 13.8 min. In the case of `Nc1ncnc2[nH]ncc12` it was 5.98 min; in that of `Cc1ccncn1`, 6.89 min. In the case of `O=C1Cc2ccccc2N1` it was 8.51 min; in that of `CCCc1ccc(N)cc1`, 9.04 min; in that of `O=C(c1ccccc1)c1nc2ccccc2[nH]c1=O`, 11.2 min. On to `Cc1cccc(C)c1NC(=S)Nc1ccccc1`, for which the LC retention time came out at 13.1 min. In the case of `Cc1oc(C)c(C(N)=O)c1C(N)=O` it was 6.82 min; in that of `c1nc[nH]n1`, 1.93 min.

For `Nc1cccc(N2CCOCC2)c1`, the LC retention time is 7.53 min.

As for `Cc1ccc(-c2ccccc2)nc1C`, the LC retention time was 8.93 min. In the case of `Nc1cccc(CO)c1` it was 6.28 min. In the case of `O=C1CCC2(O)C3Cc4ccc(O)c5c4C2(CCN3CC2CC2)C1O5` (stereo not given) it was 8.38 min.

For `COc1ccc(CNCc2ccc(C(C)C)cc2)cc1`, the LC retention time stood at 11.5 min. In the case of `CCCCCC[N+](C)(C)C` it was 8.47 min; in that of `CC(NCCc1ccc(O)cc1)C(O)c1ccc(O)cc1` (stereo not given), 8.48 min. In the case of `COc1ccc2cc3[n+](cc2c1OC)CCc1cc2c(cc1-3)OCO2` it was 10.6 min; in that of `OCCNC1CCCCC1`, 7.24 min; in that of `CCNc1cc(C)ccc1O`, 7.6 min. In the case of `C#CC(C)(N)CC` (stereo not given) it was 6.91 min; in that of `CC(=O)N1c2ccc(N)cc2CC1C` (stereo not given), 7.53 min.
